Results taken from PubChem BioAssay (NCI).
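Five compound concentrations were applied to cells in 96-well plates for 48 hours; endpoints were derived by simple linear interpolation of the resulting dose-response curve. GI50 is the concentration that inhibits growth by half. Definition used: TGI = concentration required for complete inhibition of growth.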

Key:
Assay in all cases: growth of human tumour cells (NCI), 48 h
A549 NSCLC = tested on: A549 NSCLC
EKVX NSCLC = tested on: EKVX NSCLC
IGROV1 ovarian = tested on: IGROV1 ovarian
HCT-15 colon = tested on: HCT-15 colon
HCT-116 colon = tested on: HCT-116 colon
M14 melanoma = tested on: M14 melanoma
COLO 205 colon = tested on: COLO 205 colon
KM12 colon = tested on: KM12 colon
DU-145 prostate = tested on: DU-145 prostate
HOP-92 NSCLC = tested on: HOP-92 NSCLC
HCC-2998 colon = tested on: HCC-2998 colon
NCI-H23 lung = tested on: NCI-H23 lung
T-47D breast = tested on: T-47D breast
SF-539 CNS = tested on: SF-539 CNS
SN12C renal = tested on: SN12C renal
RPMI-8226 leukemia = tested on: RPMI-8226 leukemia
MDA-MB-231 breast = tested on: MDA-MB-231 breast
LOX IMVI melanoma = tested on: LOX IMVI melanoma
UACC-62 melanoma = tested on: UACC-62 melanoma
NCI-H226 lung = tested on: NCI-H226 lung
786-0 renal = tested on: 786-0 renal
SF-295 CNS = tested on: SF-295 CNS
TK-10 renal = tested on: TK-10 renal
HOP-62 NSCLC = tested on: HOP-62 NSCLC
CCRF-CEM leukemia = tested on: CCRF-CEM leukemia
SK-OV-3 ovarian = tested on: SK-OV-3 ovarian
OVCAR-8 ovarian = tested on: OVCAR-8 ovarian
U251 CNS = tested on: U251 CNS
OVCAR-5 ovarian = tested on: OVCAR-5 ovarian
A498 renal = tested on: A498 renal
UACC-257 melanoma = tested on: UACC-257 melanoma
SK-MEL-5 melanoma = tested on: SK-MEL-5 melanoma
NCI-H522 lung = tested on: NCI-H522 lung
SW-620 colon = tested on: SW-620 colon
SF-268 CNS = tested on: SF-268 CNS
NCI/ADR-RES ovarian = tested on: NCI/ADR-RES ovarian
SR leukemia = tested on: SR leukemia
SK-MEL-2 melanoma = tested on: SK-MEL-2 melanoma
OVCAR-3 ovarian = tested on: OVCAR-3 ovarian
HT29 colon = tested on: HT29 colon
MALME-3M melanoma = tested on: MALME-3M melanoma
UO-31 renal = tested on: UO-31 renal
MDA-MB-435 = tested on: MDA-MB-435
MDA-N = tested on: MDA-N
MOLT-4 leukemia = tested on: MOLT-4 leukemia
CAKI-1 renal = tested on: CAKI-1 renal
PC-3 prostate = tested on: PC-3 prostate
BT-549 breast = tested on: BT-549 breast
SK-MEL-28 melanoma = tested on: SK-MEL-28 melanoma
HS 578T breast = tested on: HS 578T breast
K-562 leukemia = tested on: K-562 leukemia
SNB-75 CNS = tested on: SNB-75 CNS
NCI-H460 lung = tested on: NCI-H460 lung
OVCAR-4 ovarian = tested on: OVCAR-4 ovarian
HL-60(TB) leukemia = tested on: HL-60(TB) leukemia
RXF 393 renal = tested on: RXF 393 renal
SNB-19 CNS = tested on: SNB-19 CNS
MCF7 breast = tested on: MCF7 breast
ACHN renal = tested on: ACHN renal

## COc1ccc2c(c1)OCC1Cc3cccc(OC)c3OC21 (stereo unspecified)
A549 NSCLC
  TGI: > 100 µM
EKVX NSCLC
  TGI: > 100 µM
IGROV1 ovarian
  TGI: > 100 µM
HCT-15 colon
  TGI: > 100 µM
HCT-116 colon
  TGI: > 100 µM
M14 melanoma
  TGI: > 100 µM
COLO 205 colon
  TGI: > 100 µM
KM12 colon
  TGI: > 100 µM
DU-145 prostate
  TGI: > 100 µM
HOP-92 NSCLC
  TGI: > 100 µM
HCC-2998 colon
  TGI: > 100 µM
NCI-H23 lung
  TGI: > 100 µM
T-47D breast
  TGI: > 100 µM
SF-539 CNS
  TGI: > 100 µM
SN12C renal
  TGI: > 100 µM
RPMI-8226 leukemia
  TGI: > 100 µM
MDA-MB-231 breast
  TGI: > 100 µM
LOX IMVI melanoma
  TGI: > 100 µM
UACC-62 melanoma
  TGI: > 100 µM
NCI-H226 lung
  TGI: > 100 µM
786-0 renal
  TGI: > 100 µM
SF-295 CNS
  TGI: > 100 µM
TK-10 renal
  TGI: > 100 µM
HOP-62 NSCLC
  TGI: > 100 µM
CCRF-CEM leukemia
  TGI: > 100 µM
SK-OV-3 ovarian
  TGI: > 100 µM
OVCAR-8 ovarian
  TGI: > 100 µM
U251 CNS
  TGI: > 100 µM
OVCAR-5 ovarian
  TGI: > 100 µM
A498 renal
  TGI: > 100 µM
UACC-257 melanoma
  TGI: > 100 µM
SK-MEL-5 melanoma
  TGI: 35.7 µM
NCI-H522 lung
  TGI: > 100 µM
SW-620 colon
  TGI: > 100 µM
SF-268 CNS
  TGI: > 100 µM
NCI/ADR-RES ovarian
  TGI: > 100 µM
SR leukemia
  TGI: > 100 µM
SK-MEL-2 melanoma
  TGI: > 100 µM
OVCAR-3 ovarian
  TGI: > 100 µM
HT29 colon
  TGI: > 100 µM
MALME-3M melanoma
  TGI: > 100 µM
UO-31 renal
  TGI: > 100 µM
MDA-MB-435
  TGI: > 100 µM
MDA-N
  TGI: > 100 µM
MOLT-4 leukemia
  TGI: 80.7 µM
CAKI-1 renal
  TGI: > 100 µM
PC-3 prostate
  TGI: > 100 µM
BT-549 breast
  TGI: 80 µM

## C1=C(N2CCOCC2)/C(=C2\SC(=Nc3ccccc3)C(=Nc3ccccc3)N2c2ccccc2)CC1
IGROV1 ovarian
  TGI: > 100 µM
HCT-15 colon
  TGI: > 100 µM
HCT-116 colon
  TGI: > 100 µM
M14 melanoma
  TGI: > 100 µM
SK-MEL-28 melanoma
  TGI: > 100 µM
COLO 205 colon
  TGI: > 100 µM
KM12 colon
  TGI: > 100 µM
DU-145 prostate
  TGI: > 100 µM
HOP-92 NSCLC
  TGI: > 100 µM
NCI-H23 lung
  TGI: > 100 µM
T-47D breast
  TGI: > 100 µM
SN12C renal
  TGI: > 100 µM
RPMI-8226 leukemia
  TGI: > 100 µM
MDA-MB-231 breast
  TGI: > 100 µM
UACC-62 melanoma
  TGI: 48.9 µM
SF-295 CNS
  TGI: > 100 µM
HS 578T breast
  TGI: > 100 µM
HOP-62 NSCLC
  TGI: > 100 µM
CCRF-CEM leukemia
  TGI: > 100 µM
SK-OV-3 ovarian
  TGI: 69 µM
OVCAR-8 ovarian
  TGI: > 100 µM
U251 CNS
  TGI: > 100 µM
A498 renal
  TGI: > 100 µM
SK-MEL-5 melanoma
  TGI: > 100 µM
K-562 leukemia
  TGI: > 100 µM
NCI-H522 lung
  TGI: > 100 µM
NCI/ADR-RES ovarian
  TGI: > 100 µM
SR leukemia
  TGI: > 100 µM
SK-MEL-2 melanoma
  TGI: > 100 µM
OVCAR-3 ovarian
  TGI: > 100 µM
HT29 colon
  TGI: > 100 µM
MALME-3M melanoma
  TGI: > 100 µM
SNB-75 CNS
  TGI: 65.4 µM
NCI-H460 lung
  TGI: > 100 µM
MDA-MB-435
  TGI: > 100 µM
MDA-N
  TGI: > 100 µM
MOLT-4 leukemia
  TGI: > 100 µM
CAKI-1 renal
  TGI: > 100 µM
PC-3 prostate
  TGI: > 100 µM

## COc1cc2c(c(Br)c1N)-c1cc(Br)c(N)cc1C2=O
A549 NSCLC
  GI50: > 89.9 µM
  TGI: > 100 µM
EKVX NSCLC
  GI50: 9.99 µM
  TGI: > 100 µM
IGROV1 ovarian
  GI50: 0.205 µM
  TGI: > 100 µM
HCT-15 colon
  GI50: > 100 µM
  TGI: > 100 µM
HCT-116 colon
  GI50: 3.49 µM
  TGI: > 100 µM
M14 melanoma
  GI50: 50.9 µM
  TGI: > 100 µM
SK-MEL-28 melanoma
  GI50: > 100 µM
  TGI: > 100 µM
OVCAR-4 ovarian
  GI50: 1.77 µM
  TGI: > 100 µM
COLO 205 colon
  GI50: > 87 µM
  TGI: > 100 µM
KM12 colon
  GI50: > 85.1 µM
  TGI: > 100 µM
DU-145 prostate
  GI50: 59.8 µM
  TGI: > 100 µM
HOP-92 NSCLC
  GI50: 2.98 µM
  TGI: > 100 µM
HCC-2998 colon
  GI50: 4.97 µM
  TGI: > 100 µM
NCI-H23 lung
  GI50: 4.3 µM
  TGI: > 100 µM
T-47D breast
  GI50: 0.307 µM
  TGI: > 100 µM
SF-539 CNS
  GI50: 4.93 µM
  TGI: > 100 µM
SN12C renal
  GI50: 6.33 µM
  TGI: > 100 µM
RPMI-8226 leukemia
  GI50: > 100 µM
  TGI: > 100 µM
MDA-MB-231 breast
  GI50: 3.07 µM
  TGI: > 81 µM
LOX IMVI melanoma
  GI50: > 100 µM
  TGI: > 100 µM
UACC-62 melanoma
  GI50: > 100 µM
  TGI: > 100 µM
HL-60(TB) leukemia
  GI50: > 100 µM
  TGI: > 100 µM
786-0 renal
  GI50: > 100 µM
  TGI: > 100 µM
SF-295 CNS
  GI50: > 100 µM
  TGI: > 100 µM
TK-10 renal
  GI50: 0.354 µM
  TGI: > 100 µM
RXF 393 renal
  GI50: > 100 µM
  TGI: > 100 µM
HS 578T breast
  GI50: 3.02 µM
  TGI: > 100 µM
HOP-62 NSCLC
  GI50: 10.1 µM
  TGI: > 100 µM
CCRF-CEM leukemia
  GI50: > 100 µM
  TGI: > 100 µM
SK-OV-3 ovarian
  GI50: 11.3 µM
  TGI: > 73.5 µM
OVCAR-8 ovarian
  GI50: 4.9 µM
  TGI: > 100 µM
U251 CNS
  GI50: 4.58 µM
  TGI: > 100 µM
OVCAR-5 ovarian
  GI50: 0.0894 µM
  TGI: > 100 µM
A498 renal
  GI50: > 61.7 µM
  TGI: > 100 µM
SNB-19 CNS
  GI50: > 100 µM
  TGI: > 100 µM
UACC-257 melanoma
  GI50: > 100 µM
  TGI: > 100 µM
MCF7 breast
  GI50: 0.131 µM
  TGI: > 100 µM
SK-MEL-5 melanoma
  GI50: 5.39 µM
  TGI: > 100 µM
K-562 leukemia
  GI50: > 100 µM
  TGI: > 100 µM
NCI-H522 lung
  GI50: 9.15 µM
  TGI: 59.6 µM
ACHN renal
  GI50: > 100 µM
  TGI: > 100 µM
SW-620 colon
  GI50: > 100 µM
  TGI: > 100 µM
SF-268 CNS
  GI50: 7.37 µM
  TGI: > 100 µM
NCI/ADR-RES ovarian
  GI50: 5.31 µM
  TGI: > 100 µM
SR leukemia
  GI50: 0.0592 µM
  TGI: > 100 µM
SK-MEL-2 melanoma
  GI50: > 100 µM
  TGI: > 100 µM
OVCAR-3 ovarian
  GI50: > 100 µM
  TGI: > 100 µM
HT29 colon
  GI50: > 100 µM
  TGI: > 100 µM
MALME-3M melanoma
  GI50: > 100 µM
  TGI: > 100 µM
SNB-75 CNS
  GI50: 1.96 µM
  TGI: > 100 µM
NCI-H460 lung
  GI50: 3.21 µM
  TGI: > 100 µM
UO-31 renal
  GI50: > 100 µM
  TGI: > 100 µM
MDA-MB-435
  GI50: > 100 µM
  TGI: > 100 µM
MOLT-4 leukemia
  GI50: > 100 µM
  TGI: > 100 µM
CAKI-1 renal
  GI50: > 100 µM
  TGI: > 100 µM
PC-3 prostate
  GI50: > 100 µM
  TGI: > 100 µM
BT-549 breast
  GI50: > 24.8 µM
  TGI: > 100 µM
